Results: patent publication US20250049036A1 (priority 2021, published 2025)

Legend:
Alternaria solani [1] = test: Alternaria solani (early blight of tomato/potato) mycelial radial growth on potato dextrose agar; assay type: cell-based; details: 168 h, 25° C., seven days, read-out: control compared to the untreated check
Procedure: (§1) The compounds were dissolved in 0.3% dimethyl sulfoxide and then added to potato dextrose agar medium just prior to dispensing it into petri dishes. 5 mL medium, with the compound in the desired concentration, was dispensed into 60 mm sterile petri-plates. After solidification, each plate was seeded with a 5 mm size mycelial disc taken from the periphery of an actively growing virulent culture plate. The plates were incubated in growth chambers at 25° C. temperature and 60% relative humidity for seven days and the radial growth was measured and compared to the one of the untreated control.

Colletotrichum capsici = Colletotrichum capsici (anthracnose) mycelial radial growth on potato dextrose agar; assay type: cell-based; details: Colletotrichum truncatum, 168 h, 25° C., seven days, read-out: control compared to the untreated check
Method in brief: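 Compounds in 0.3% DMSO were mixed into potato dextrose agar, and each plate was seeded with a 5 mm mycelial disc from an actively growing culture. Plates were incubated at 25° C and 60% relative humidity for seven days. Radial growth was compared with untreated control.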

Corynespora cassiicola = Corynespora cassiicola (leaf spot of tomato) mycelial radial growth on potato dextrose agar; assay type: cell-based; details: 168 h, 25° C., seven days, read-out: control compared to the untreated check
Procedure: as §1, with “70%” for “60%”

Parastagonospora nodorum = Parastagonospora nodorum (PARANO) spore growth inhibition in liquid medium, 96-well microtiter plate, OD 600; assay type: cell-based; details: spore suspension in PDB liquid medium, 18° C., 5-6 days, OD at 600, read-out: control compared to the untreated check
Method in brief: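 Read-out is percent growth inhibition from OD at 600 after 5-6 days at 18° C. Compounds, dissolved in DMSO, were diluted in potato dextrose broth and combined in equal volume with a 10^5 spores/ml suspension of PARANO.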

Botrytis cinerea [2] = test: Botrytis cinerea liq. (BOTRCI) spore growth inhibition in liquid medium, 96-well microtiter plate, OD 405 nm; assay type: cell-based; details: spore suspension in YBA liquid medium, 22° C., 5-6 days, OD at 405 nm, read-out: control compared to the untreated check
Method in brief: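 Spore suspension of B. cinerea (10^4 spores/ml) in YBA liquid medium mixed 1:1 with compound diluted from DMSO. Incubated at 22° C. for 5-6 days. Growth read as OD 405 nm; percent inhibition derived from treatment, untreated-control and blank readings.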

Pyricularia oryzae = test: microbe, parasite or virus in culture; assay type: cell-based; details: 168 h, read-out: control compared to the untreated check
Phakopsora pachyrhizi = Phakopsora pachyrhizi test on soybean, preventive, greenhouse; assay type: in vivo; details: preventive spray on soybean, inoculated one day after treatment, read-out: control (efficacy, disease severity) compared to the untreated check
Method in brief: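 Preventive protocol: plants inoculated with a 2×10^5 P. pachyrhizi conidial suspension one day after spray application at the stated rate, then incubated at 22-24 °C and 80-90% RH. Compound was applied from 2% DMSO/acetone diluted in emulsified water.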

Venturia Inequalis = test: Venturia inequalis (VENTIN) spore growth inhibition in liquid medium, 96-well microtiter plate, OD 600; assay type: cell-based; details: spore suspension in PDB liquid medium, 18° C., 15-18 days, OD at 600, read-out: control compared to the untreated check
Method in brief: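 Venturia inequalis spores (10^5 spores/ml suspension) were grown in potato dextrose broth with test compounds dissolved in DMSO, mixing equal volumes of compound solution and spore suspension. Plates were incubated at 18 °C for 15–18 days. Growth was read as OD600 and converted to percent inhibition.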

Fusarium culmorum = Fusarium culmorum test on wheat, preventive, greenhouse; assay type: in vivo; details: preventive spray on wheat, inoculated one day after treatment, read-out: control (efficacy, disease severity) compared to the untreated check
Procedure: The respective compound was dissolved in 2% dimethyl sulfoxide/acetone and then mixed with water containing an emulsifier to a calibrated spray volume of 30 mL. Each spray solution was poured into a spray bottle for further application.
(§2) To test the preventive activity of a compound, healthy young wheat plants, raised in the greenhouse, were sprayed with the active compound preparation at the stated application rate inside the spray cabinets using hollow cone nozzles. One day after the treatment, the plants were inoculated with a spore suspension containing 2×10^6 Fusarium culmorum inoculum. The inoculated plants were then kept in a greenhouse chamber at 24° C. temperature and 80-90% relative humidity for disease expression.
(§3) A visual assessment of the compound's performance was carried out by rating the disease severity (0 100% scale) on treated plants 3, 7, 10 and 15 days after application. Efficacy (% control) of the compound was calculated by comparing the disease rating in the treatment with the one of the untreated control. The treated plants were also assessed for plant damage by recording symptoms like necrosis, chlorosis and stunting.

Botrytis cinerea [3] = test: Botrytis cinerea test on tomato, preventive, greenhouse; assay type: in vivo; details: preventive spray on bean/chili plants (heading: tomato), inoculated one day after treatment, read-out: control (efficacy, disease severity) compared to the untreated check
Botrytis cinerea [4] = test: Botrytis cinerea (gray mold) mycelial radial growth on potato dextrose agar; assay type: cell-based; details: 168 h, 22° C., seven days, read-out: control compared to the untreated check
Method in brief: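 Compounds in 0.3% DMSO were mixed into potato dextrose agar, and plates were seeded with 5 mm mycelial discs from actively growing virulent culture. After seven days at 22 °C and 90% relative humidity, radial growth was measured relative to untreated control.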

Phytophthora infestans [5] = test: whole plant or invertebrate; assay type: in vivo, Phytophthora infestans on tomato; details: in Solanum lycopersicum, read-out: control (efficacy, disease severity) compared to the untreated check
Phytophthora infestans [6] = test: microbe, parasite or virus in culture; assay type: cell-based; details: 168 h, read-out: control compared to the untreated check
Alternaria solani [7] = test: Alternaria solani test in tomato, preventive, greenhouse; assay type: in vivo; details: preventive spray on tomato, inoculated one day after treatment, read-out: control (efficacy, disease severity) compared to the untreated check
Procedure: The respective compound was dissolved in 2% dimethyl sulfoxide/acetone and then mixed with water containing an emulsifier to the calibrated spray volume of 30 mL. Each spray solution was poured into a spray bottle for further application.
as §2, with “tomato” for “wheat”, “after” for “after the”, “0.24×10^6 Alternaria solani” for “2×10^6 Fusarium culmorum”, “22-24°” for “24°”, “90-95%” for “80-90%”
as §3

CCC(C)(Cc1ccccc1)NC(=O)c1cnc2c(ccn2C)c1 (stereo not shown) [Compound 6, 1-methyl-N-(2-methyl-1-phenylbutan-2-yl)-1H-pyrrolo[2,3-b] pyridine-5-carboxamide]
≥ 70%: inhibition of growth at 300 ppm (Alternaria solani [1]) | inhibition of growth at 300 ppm (Colletotrichum capsici) | inhibition of growth at 300 ppm (Corynespora cassiicola) | inhibition of growth at 300 ppm (Parastagonospora nodorum) | inhibition of growth at 300 ppm (Botrytis cinerea [2])

Cn1ccc2cc(C(=O)NC(C)(C)Cc3ccc(Cl)cc3)cnc21 [Compound 43, N-(1-(4-chlorophenyl)-2-methylpropan-2-yl)-1-methyl-1H-pyrrolo[2,3-b]pyridine-5-carboxamide]
≥ 70%: inhibition of growth at 300 ppm (Pyricularia oryzae) | inhibition of growth at 300 ppm (Corynespora cassiicola) | inhibition of growth at 300 ppm (Parastagonospora nodorum) | pest or weed control at 500 ppm (Phakopsora pachyrhizi)

CC(C)CC(C)(Cc1ccccc1)NC(=O)c1cnc2c(c1)CCCC2 (stereo not shown) [Compound 44, N-(2,4-dimethyl-1-phenylpentan-2-yl)-5,6,7,8-tetrahydroquinoline-3-carboxamide]
≥ 70%: inhibition of growth at 300 ppm (Pyricularia oryzae) | inhibition of growth at 300 ppm (Colletotrichum capsici) | inhibition of growth at 300 ppm (Parastagonospora nodorum) | inhibition of growth at 300 ppm (Venturia Inequalis) | pest or weed control at 500 ppm (Fusarium culmorum) | pest or weed control at 500 ppm (Botrytis cinerea [3]) | pest or weed control at 500 ppm (Phakopsora pachyrhizi)

Cc1ccc(CC(C)(C)NC(=O)c2cnc3c(ccn3C)c2)cc1 [Compound 50, 1-methyl-N-(2-methyl-1-(p-tolyl)propan-2-yl)-1H-pyrrolo[2,3-b] pyridine-5-carboxamide]
≥ 70%: inhibition of growth at 300 ppm (Pyricularia oryzae) | inhibition of growth at 300 ppm (Botrytis cinerea [4]) | inhibition of growth at 300 ppm (Alternaria solani [1]) | inhibition of growth at 300 ppm (Colletotrichum capsici) | inhibition of growth at 300 ppm (Parastagonospora nodorum) | inhibition of growth at 300 ppm (Botrytis cinerea [2]) | pest or weed control at 500 ppm (Fusarium culmorum) | pest or weed control at 500 ppm (Phakopsora pachyrhizi)

CC(C)CC(C)(Cc1ccccc1)NC(=O)c1cnc2c(c1)CCC2 (stereo not shown) [Compound 62, N-(2,4-dimethyl-1-phenylpentan-2-yl)-6,7-dihydro-5H-cyclopenta[b]pyridine-3-carboxamide]
≥ 70%: inhibition of growth at 300 ppm (Colletotrichum capsici) | inhibition of growth at 300 ppm (Venturia Inequalis) | pest or weed control at 500 ppm (Fusarium culmorum) | pest or weed control at 500 ppm (Botrytis cinerea [3]) | pest or weed control at 500 ppm (Phytophthora infestans [5]) | pest or weed control at 500 ppm (Phakopsora pachyrhizi)

CC(c1ccccc1F)C(C)(C)NC(=O)c1cnc2c(c1)c(Br)cn2C (stereo not shown) [Compound 63, 3-bromo-N-(3-(2-fluorophenyl)-2-methylbutan-2-yl)-1-methyl-1H-pyrrolo[2,3-b]pyridine-5-carboxamide]
≥ 70%: inhibition of growth at 300 ppm (Pyricularia oryzae) | inhibition of growth at 300 ppm (Botrytis cinerea [4]) | inhibition of growth at 300 ppm (Parastagonospora nodorum) | inhibition of growth at 300 ppm (Venturia Inequalis) | inhibition of growth at 300 ppm (Botrytis cinerea [2]) | pest or weed control at 500 ppm (Fusarium culmorum) | pest or weed control at 500 ppm (Botrytis cinerea [3]) | pest or weed control at 500 ppm (Phytophthora infestans [5]) | pest or weed control at 500 ppm (Phakopsora pachyrhizi)

CC(C)(Cc1ccccc1)NC(=O)c1cnc2c(c1)CCC2 [Compound 67, N-(2-methyl-1-phenylpropan-2-yl)-6,7-dihydro-5H-cyclopenta[b]pyridine-3-carboxamide]
≥ 70%: inhibition of growth at 300 ppm (Botrytis cinerea [4]) | inhibition of growth at 300 ppm (Parastagonospora nodorum) | inhibition of growth at 300 ppm (Venturia Inequalis) | inhibition of growth at 300 ppm (Botrytis cinerea [2]) | pest or weed control at 500 ppm (Fusarium culmorum) | pest or weed control at 500 ppm (Botrytis cinerea [3]) | pest or weed control at 500 ppm (Phytophthora infestans [5]) | pest or weed control at 500 ppm (Phakopsora pachyrhizi)

CC(C)CC(C)(Cc1ccccc1)NC(=O)c1cnc2c(c1)OCCN2C (stereo not shown) [Compound 81, N-(2,4-dimethyl-1-phenylpentan-2-yl)-4-methyl-3,4-dihydro-2H-pyrido[3,2-b] [1,4]oxazine-7-carboxamide]
≥ 70%: inhibition of growth at 300 ppm (Pyricularia oryzae) | inhibition of growth at 300 ppm (Colletotrichum capsici) | inhibition of growth at 300 ppm (Parastagonospora nodorum) | inhibition of growth at 300 ppm (Venturia Inequalis) | pest or weed control at 500 ppm (Fusarium culmorum) | pest or weed control at 500 ppm (Botrytis cinerea [3]) | pest or weed control at 500 ppm (Phytophthora infestans [5])

Cc1cc2cc(C(=O)NC(C)(C)Cc3ccccc3)cnc2n1C [Compound 99, 1,2-dimethyl-N-(2-methyl-1-phenylpropan-2-yl)-1H-pyrrolo[2,3-b] pyridine-5-carboxamide]
≥ 70%: inhibition of growth at 300 ppm (Pyricularia oryzae) | inhibition of growth at 300 ppm (Alternaria solani [1]) | inhibition of growth at 300 ppm (Colletotrichum capsici) | inhibition of growth at 300 ppm (Parastagonospora nodorum) | pest or weed control at 500 ppm (Fusarium culmorum) | pest or weed control at 500 ppm (Phakopsora pachyrhizi)

CC(C)(C)NC(=O)c1cnc2ccsc2c1 [Compound 107, N-(tert-butyl)thieno[3,2-b] pyridine-6-carboxamide]
≥ 70%: inhibition of growth at 300 ppm (Corynespora cassiicola) | inhibition of growth at 300 ppm (Venturia Inequalis) | pest or weed control at 500 ppm (Phakopsora pachyrhizi)

CC(C)(NC(=O)c1cnc2ccsc2c1)C(F)(F)F [Compound 109, N-(1,1,1-trifluoro-2-methylpropan-2-yl)thieno[3,2-b] pyridine-6-carboxamide]
≥ 70%: inhibition of growth at 300 ppm (Pyricularia oryzae) | inhibition of growth at 300 ppm (Botrytis cinerea [4]) | inhibition of growth at 300 ppm (Alternaria solani [1]) | inhibition of growth at 300 ppm (Corynespora cassiicola) | inhibition of growth at 300 ppm (Phytophthora infestans [6]) | inhibition of growth at 300 ppm (Parastagonospora nodorum) | inhibition of growth at 300 ppm (Botrytis cinerea [2])

Cc1cc(F)ccc1C(=O)OCC(C)(C)NC(=O)c1cnc2c(ccn2C)c1 [Compound 125, 2-methyl-2-(1-methyl-1H-pyrrolo[2,3-b]pyridine-5-carboxamido)propyl 4-fluoro-2-methylbenzoate]
≥ 70%: inhibition of growth at 300 ppm (Corynespora cassiicola) | pest or weed control at 500 ppm (Botrytis cinerea [3]) | pest or weed control at 500 ppm (Phakopsora pachyrhizi)

C=C(C)CC(C)(Cc1ccccc1F)NC(=O)c1cnc2c(ccn2C)c1 (stereo not shown) [Compound 127, N-(1-(2-fluorophenyl)-2,4-dimethylpent-4-en-2-yl)-1-methyl-1H-pyrrolo[2,3-b]pyridine-5-carboxamide]
≥ 70%: inhibition of growth at 300 ppm (Colletotrichum capsici) | inhibition of growth at 300 ppm (Corynespora cassiicola) | inhibition of growth at 300 ppm (Venturia Inequalis) | pest or weed control at 500 ppm (Alternaria solani [7]) | pest or weed control at 500 ppm (Phakopsora pachyrhizi)

C=C(C)CC(C)(Cc1ccccc1F)NC(=O)c1cnc2ccsc2c1 (stereo not shown) [Compound 129, N-(1-(2-fluorophenyl)-2,4-dimethylpent-4-en-2-yl)thieno[3,2-b] pyridine-6-carboxamide]
≥ 70%: inhibition of growth at 300 ppm (Alternaria solani [1]) | inhibition of growth at 300 ppm (Colletotrichum capsici) | inhibition of growth at 300 ppm (Corynespora cassiicola) | pest or weed control at 500 ppm (Phakopsora pachyrhizi)
